From publication PMC4763718 (MedChemComm, 2015) come the findings set out here.

For test [1], the target named is T1, cyclin G associated kinase (GAK) (Homo sapiens, UniProt O14976).
T1 sequence (O14976 1-1311): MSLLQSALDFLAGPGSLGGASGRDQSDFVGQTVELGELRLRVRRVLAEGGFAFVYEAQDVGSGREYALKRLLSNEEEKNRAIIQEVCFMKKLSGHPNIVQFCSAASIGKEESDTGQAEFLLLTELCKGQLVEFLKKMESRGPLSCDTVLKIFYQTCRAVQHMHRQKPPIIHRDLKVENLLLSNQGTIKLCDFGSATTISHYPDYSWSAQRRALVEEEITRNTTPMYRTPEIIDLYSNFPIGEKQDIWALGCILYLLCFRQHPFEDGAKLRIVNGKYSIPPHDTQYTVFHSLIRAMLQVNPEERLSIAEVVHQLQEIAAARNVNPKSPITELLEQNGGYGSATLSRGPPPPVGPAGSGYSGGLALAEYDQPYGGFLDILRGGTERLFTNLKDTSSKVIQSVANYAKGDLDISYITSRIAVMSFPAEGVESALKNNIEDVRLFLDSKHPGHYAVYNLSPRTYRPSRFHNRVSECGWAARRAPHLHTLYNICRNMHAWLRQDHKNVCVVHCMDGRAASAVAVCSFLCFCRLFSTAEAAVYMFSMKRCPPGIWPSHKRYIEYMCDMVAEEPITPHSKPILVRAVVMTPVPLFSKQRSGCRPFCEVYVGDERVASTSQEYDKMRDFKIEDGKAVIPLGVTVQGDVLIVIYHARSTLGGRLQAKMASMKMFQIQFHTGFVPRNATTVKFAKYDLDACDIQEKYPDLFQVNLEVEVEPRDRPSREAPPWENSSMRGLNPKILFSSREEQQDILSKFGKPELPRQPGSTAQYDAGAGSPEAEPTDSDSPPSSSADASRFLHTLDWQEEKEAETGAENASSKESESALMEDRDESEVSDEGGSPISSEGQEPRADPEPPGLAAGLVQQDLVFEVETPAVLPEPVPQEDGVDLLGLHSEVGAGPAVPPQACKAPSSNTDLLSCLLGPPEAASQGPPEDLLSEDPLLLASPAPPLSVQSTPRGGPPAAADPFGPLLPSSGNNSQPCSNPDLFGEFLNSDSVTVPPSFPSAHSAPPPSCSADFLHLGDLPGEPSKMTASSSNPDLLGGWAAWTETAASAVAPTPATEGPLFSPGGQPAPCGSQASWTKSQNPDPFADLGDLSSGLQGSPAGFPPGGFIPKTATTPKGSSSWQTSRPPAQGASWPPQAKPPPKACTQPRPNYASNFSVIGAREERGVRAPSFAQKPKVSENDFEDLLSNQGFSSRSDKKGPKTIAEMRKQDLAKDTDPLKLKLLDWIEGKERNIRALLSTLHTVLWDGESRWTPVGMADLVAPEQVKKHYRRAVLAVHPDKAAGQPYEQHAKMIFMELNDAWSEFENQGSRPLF
As to the kind of experiment: KINOMEscan competition binding assay.

A further test deals with J6/JFH(p7-Rluc2A) HCV. The format is cell-based, hepatitis C virus.

In the case of `COc1ccc(-c2cnc3c(NC(=O)C4CC=CC4)snc3c2)cc1OC` [Compound 5g], the “GAK affinity (in words)” value in test [1] is on record as “reduced the affinity to GAK”.

For the molecule `COc1ccc(-c2cnc3c(NC(=O)C4CCCCCC4)snc3c2)cc1OC` [Compound 5h], the “GAK affinity (in words)” value in test [1] was “reduced the affinity to GAK”.

With `COc1ccc(-c2cnc3c(NC(=O)C4CCOCC4)snc3c2)cc1OC` [Compound 5i], the “GAK affinity (in words)” value in test [1] is reported as “reduced the affinity to GAK”.

`CCCCCOc1snc2cc(-c3ccc(OC)c(OC)c3)cnc12` [Compound 8e]: the “GAK affinity (in words)” value in test [1] is reported as “completely abolished GAK affinity”.

With `CC(C)Oc1snc2cc(-c3ccsc3)cnc12` [Compound 8j], in the test with J6/JFH(p7-Rluc2A) HCV, the “effect on HCV replication (in words)” value is recorded as “minimal to no effect”.

Regarding `COc1ccc(-c2cnc3c(N4CCN(C(C)C)CC4)snc3c2)cc1OC` [Compound 8l], the “GAK affinity (in words)” value in test [1] was “did not lead to any improvement in GAK affinity”.

As for `CCCCN1CCN(c2snc3cc(-c4ccc(OC)c(OC)c4)cnc23)CC1` [Compound 8m], the “GAK affinity (in words)” value in test [1] is given as “did not lead to any improvement in GAK affinity”.

Consider `COc1ccc(-c2cnc3c(N4CCN(c5ccncc5)CC4)snc3c2)cc1OC` [Compound 8n], for which, in test [1], the “GAK affinity (in words)” value was “did not lead to any improvement in GAK affinity”.

On to `COc1ccc(-c2cnc3c(N4CCN(C(=O)c5ccccc5)CC4)snc3c2)cc1OC` [Compound 8q], for which the “GAK affinity (in words)” value in test [1] was “inactive”.
